Tests used:
Assay type in all cases: cell-based
[1] = tested on: Enterococcus faecalis (EFA); test: MIC, two-fold agar dilution (CLSI), clinical isolates
Excerpt: (§1) 1. The invention adopts the two-fold agar dilution method recommended by the operating procedure of antimicrobial susceptibility testing set by American Clinical and Laboratory Standards Institute (CLSI) to determine the Minimum Inhibitory Concentration (MIC) of the test samples against the tested strains.

[2] = tested on: Streptococcus pneoumoniae (SPN); test: as above
Excerpt: as §1

[3] = tested on: Enterococcus faecium (EFM); test: as above
Excerpt: as §1

[4] = tested on: methicillin-sensitive Staphylococcus epidermidis (MSSE); test: as above
Excerpt: as §1

[5] = tested on: Escherichia coli (including ESBLs, non-ESBLs); test: as above
Excerpt: as §1

[6] = tested on: methicillin-resistant Staphylococcus aureus (MRSA); test: as above
Excerpt: as §1

[7] = tested on: Moraxella catarrhalis (BCA); test: as above
Excerpt: as §1

[8] = tested on: methicillin-sensitive Staphylococcus aureus (MSSA); test: as above
Excerpt: as §1

[9] = tested on: methicillin-resistant Staphylococcus epidermidis (MRSE); test: as above
Excerpt: as §1

[10] = tested on: HCT-116 colorectal cancer cell line; test: CCK-8 proliferation inhibition; conditions: Homo sapiens, HCT-116, 72 h, concentration of 30 μM; 72 hours; CCK-8; read-out: HCT116 inhibition rate/%
Method in brief: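 Viability read-out: 1:10 diluted CCK-8 after 72 h compound exposure at 37 °C, 5% CO2. Cells (2000/well, McCoy's 5A plus 10% newborn bovine serum) pre-cultured overnight; vehicle control 1‰ DMSO.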

O=CN(O)C[C@@H](CC1CCCC1)C(=O)N1CC2(CC2)C[C@H]1C(=O)Nc1nncs1 [Example 41, (S)-5-((R)-3-cyclopentyl-2-((N-hydroxyformamido)methyl)propionyl)-N-(1,3,4-thiadiazol-2-yl)-5-azaspiro[2.4]heptane-6-carboxamide]
0.25 mg/L: Anti-bacterial activity (MIC), strain SPN 16-2 ([2]; clinical isolate SPN 16-2) | Anti-bacterial activity (MIC), strain EFM 15-3 ([3]; clinical isolate EFM 15-3) | Anti-bacterial activity (MIC), strain BCA 14-5 ([7]; clinical isolate BCA 14-5)
32 mg/L: Anti-bacterial activity (MIC), strain ECO+ 15-1 ([5]; clinical isolate ECO+ 15-1) | Anti-bacterial activity (MIC), strain ECO+ 15-2 ([5]; clinical isolate ECO+ 15-2) | Anti-bacterial activity (MIC), strain ECO+ 15-3 ([5]; clinical isolate ECO+ 15-3) | Anti-bacterial activity (MIC), strain ECO+ 15-4 ([5]; clinical isolate ECO+ 15-4) | Anti-bacterial activity (MIC), strain ECO− 15-1 ([5]; clinical isolate ECO− 15-1) | Anti-bacterial activity (MIC), strain ECO− 15-2 ([5]; clinical isolate ECO− 15-2) | Anti-bacterial activity (MIC), strain ECO− 15-3 ([5]; clinical isolate ECO− 15-3) | Anti-bacterial activity (MIC), strain ECO− 15-4 ([5]; clinical isolate ECO− 15-4)
24%: inhibition at 30 µM [10]
1 mg/L: Anti-bacterial activity (MIC), strain EFA 15-3 ([1]; clinical isolate EFA 15-3) | Anti-bacterial activity (MIC), strain EFM 15-1 ([3]; clinical isolate EFM 15-1) | Anti-bacterial activity (MIC), strain EFM 15-4 ([3]; clinical isolate EFM 15-4) | Anti-bacterial activity (MIC), strain EFM 15-5 ([3]; clinical isolate EFM 15-5) | Anti-bacterial activity (MIC), strain MSSE 15-3 ([4]; clinical isolate MSSE 15-3) | Anti-bacterial activity (MIC), strain MSSE 15-4 ([4]; clinical isolate MSSE 15-4) | Anti-bacterial activity (MIC), strain MSSE 15-5 ([4]; clinical isolate MSSE 15-5) | Anti-bacterial activity (MIC), strain MSSE 15-6 ([4]; clinical isolate MSSE 15-6) | Anti-bacterial activity (MIC), strain MRSA 15-2 ([6]; clinical isolate MRSA 15-2) | Anti-bacterial activity (MIC), strain MRSA 15-4 ([6]; clinical isolate MRSA 15-4) | Anti-bacterial activity (MIC), strain BCA 14-1 ([7]; clinical isolate BCA 14-1) | Anti-bacterial activity (MIC), strain BCA 14-7 ([7]; clinical isolate BCA 14-7) | Anti-bacterial activity (MIC), strain MSSA 15-3 ([8]; clinical isolate MSSA 15-3) | Anti-bacterial activity (MIC), strain MRSE 15-2 ([9]; clinical isolate MRSE 15-2) | Anti-bacterial activity (MIC), strain MRSE 15-3 ([9]; clinical isolate MRSE 15-3) | Anti-bacterial activity (MIC), strain MRSE 15-7 ([9]; clinical isolate MRSE 15-7)
4 mg/L: Anti-bacterial activity (MIC), strain EFA 15-1 ([1]; clinical isolate EFA 15-1) | Anti-bacterial activity (MIC), strain EFA 15-2 ([1]; clinical isolate EFA 15-2) | Anti-bacterial activity (MIC), strain EFA 15-4 ([1]; clinical isolate EFA 15-4) | Anti-bacterial activity (MIC), strain EFA 15-5 ([1]; clinical isolate EFA 15-5) | Anti-bacterial activity (MIC), strain EFA 15-6 ([1]; clinical isolate EFA 15-6) | Anti-bacterial activity (MIC), strain EFA 15-9 ([1]; clinical isolate EFA 15-9) | Anti-bacterial activity (MIC), strain SPN 16-4 ([2]; clinical isolate SPN 16-4) | Anti-bacterial activity (MIC), strain BCA 14-6 ([7]; clinical isolate BCA 14-6) | Anti-bacterial activity (MIC), strain BCA 14-8 ([7]; clinical isolate BCA 14-8)
0.5 mg/L: Anti-bacterial activity (MIC), strain MRSA 15-1 ([6]; clinical isolate MRSA 15-1) | Anti-bacterial activity (MIC), strain MRSA 15-3 ([6]; clinical isolate MRSA 15-3) | Anti-bacterial activity (MIC), strain BCA 14-10 ([7]; clinical isolate BCA 14-10) | Anti-bacterial activity (MIC), strain MSSA 15-4 ([8]; clinical isolate MSSA 15-4) | Anti-bacterial activity (MIC), strain MSSA 15-5 ([8]; clinical isolate MSSA 15-5) | Anti-bacterial activity (MIC), strain MSSA 15-6 ([8]; clinical isolate MSSA 15-6) | Anti-bacterial activity (MIC), strain MRSE 15-1 ([9]; clinical isolate MRSE 15-1)
2 mg/L: Anti-bacterial activity (MIC), strain EFM 15-2 ([3]; clinical isolate EFM 15-2) | Anti-bacterial activity (MIC), strain EFM 15-6 ([3]; clinical isolate EFM 15-6) | Anti-bacterial activity (MIC), strain BCA 14-4 ([7]; clinical isolate BCA 14-4)

Reference: US10738028B2, “Spiro three-membered ring, spiro five-membered ring peptide deformylase inhibitor and use thereof in antibacteria and anti-tumor” (priority 2016, dated 2020)
